Results on 41 compounds are retold here after publication PMC7111419 (European Journal of Medicinal Chemistry, 2019).

Read-outs that look alike come from different tables or passages of the source.

Data set [1] concerns whole human gut bacterial βGLU (eight bacterial isolates). The note with it: cited from earlier work.
The subject of data set [2] is male Wistar rats. The note with it: cited from earlier work.
In data set [3] the test system is E. coli βGLU. Particulars: cited from earlier work.
Data set [4] concerns male ICR mice. Particulars: cited from earlier work.
For data set [5], the system named is βGLU. The class given is biochemical.
For data set [6], the system named is βGLU. Particulars: cited from earlier work.
The test system of data set [7] is Wistar rats. Particulars: 0.8 μg inhibitor, 3 mg/kg diclofenac; cited from earlier work.
Data set [8] concerns rat liver βGLU. The note with it: cited from earlier work.
Data set [9] has as its system male Wister rats. Particulars: cited from earlier work; for tumour size: from 2 cm.
For data set [10], the system named is bacterial βGLU. The note with it: cited from earlier work.
Data set [11] relates to bovine liver βGLU. The note with it: cited from earlier work.
Data set [12] concerns neutrophil-derived βGLU. The note with it: 1 μM; cited from earlier work.
The subject of data set [13] is male Fischer rats. The note with it: cited from earlier work; for reduction of aberrant crypt foci formation: 5 weeks, vs azoxymethane-controls.
In data set [14] the test system is bacterial βGLU. The class given is biochemical.
Data set [15] relates to 3T3 cells. The note with it: cited from earlier work.
The conditions of data set [16]: cited from earlier work.
Data set [17] concerns BALB/cJ mice. Particulars: 10 μg twice daily with 50 mg/kg CPT-11 once daily; cited from earlier work.
Data set [18] has as its system E. coli βGLU. In words: E. coli βGLU inhibition. The class given is biochemical.
Data set [19] relates to newborns. The note with it: cited from earlier work.
Setting [20] is: […] test concentration, US 7,294,330 B2.

`CC(C)=CCc1c(-c2ccc(O)cc2O)oc2c([C@H]3C=C(C)C[C@@H](c4ccc(O)cc4O)[C@@H]3C(=O)c3ccc(O)cc3O)c(O)cc(O)c2c1=O` [Compound 21, Kuwanon G]: in data set [1], the IC50 was 7.4 µM and the inhibition is on record as above 70%.

Regarding `CC1(C)[C@@H](O[C@H]2O[C@H](C(=O)O)[C@@H](O)[C@H](O)[C@H]2O[C@@H]2O[C@H](C(=O)O)[C@@H](O)[C@H](O)[C@H]2O)CC[C@]2(C)[C@H]3C(=O)C=C4[C@@H]5C[C@@](C)(C(=O)O)CC[C@]5(C)CC[C@@]4(C)[C@]3(C)CC[C@@H]12` [Compound 45, glycyrrhizinic acid], in data set [2] (100 mg/kg oral), the “AST, ALT and LDH levels compared to CCl4-controls” value was “significant reduction”. Besides, the hepatoprotection result in [2] (intraperitoneal administration) is recorded as “did not provide hepatoprotection”.

In the case of `O=C1CCCCCC/C=C/CCCCCCC1` [Compound 191], the “inhibition of E. coli βGLU” value is given as 95.8% in data set [3] (0.001 wt%) and 100% in [3] (0.1 wt% in dipropylene glycol).

For the compound `COc1c(O[C@@H]2O[C@H](CO)[C@@H](O)[C@H](O)[C@H]2O)cc2occ(-c3ccc(O)cc3)c(=O)c2c1O` [Compound 43, tectoridin], the hepatoprotection entry in data set [4] (100 mg/kg intraperitoneal) is “failure to provide desired hepatoprotection”. For the same compound, the “serum AST, ALT and LDH levels relative to CCl4-treated controls” value in [4] (100 mg/kg oral) is on record as “significantly lowering”. The presence in serum entry in data set [4] (250 mg/kg oral, only tectorigenin detected) is recorded as “absence in the serum”.

On to `O=C(N/N=C/c1ccccc1F)c1cc2cc(Cl)ccc2[nH]1` [Compound 129], for which, in data set [5], the “fold stronger than corresponding oxadiazole variant of compound 115 library” value was 43 fold.

`COC(=O)[C@]1(Cc2ccc(O)c(C=O)c2)OC(=O)C(O)=C1c1ccc(O)cc1` [Compound 8]: in data set [5], the “fold stronger potency than prenylated isomer (9)” value is recorded as 16 fold and the “fold superior potency compared to D-SAL” value was found to be 8 fold.

Consider `COc1ccccc1-c1nnc(-c2ccc(C(=O)NNS(=O)(=O)c3cc(Cl)c(Cl)cc3Cl)cc2)o1` [Compound 116], for which, in data set [6], the IC50 is 1.4 µM.

Consider `COc1ccc(NC(=S)N(CCO)Cc2cc3cc(C)cc(C)c3[nH]c2=O)cc1` [Compound 152], for which the “fold reduction in severity of diclofenac-induced anastomotic leakage” value in data set [7] was 2 fold. Moreover, the “fold increased potency vs glucaro-δ-lactam 61” value in [3] is 100 fold.

On to `CC1(C)[C@@H](O)CC[C@]2(C)[C@H]3C(=O)C=C4[C@@H]5C[C@@](C)(C(=O)O)CC[C@]5(C)CC[C@@]4(C)[C@]3(C)CC[C@@H]12` [Compound 44, 18β-glycyrrhetinic acid], for which the half-maximal inhibitory concentration (IC50) in [8] was 42.5 µM; in [3] it was 510 µM. Moreover, the “AST, ALT and LDH levels compared to CCl4-controls” value in [2] (100 mg/kg intraperitoneal) is “significant reduction”.

Consider `CCCCCCO[C@H]1C[C@](Cl)(CO)[C@@H](O)[C@H](O)[C@H]1NC(C)=O` [Compound 75], for which the IC50 in data set [3] is 170 µM.

Regarding `C[C@]12C=C/C(=N\O)C=C1CC[C@H]1[C@@H]3[C@@H](O)C[C@](C)(O)[C@@]3(C)CC[C@@H]12` [Compound 49], in data set [5], the “fold superior than Z-isomer” value is reported as 2 fold.

Consider `O=c1c(-c2ccc(O)cc2)coc2cc(O)ccc12` [Compound 41, daidzein], for which the IC50 is 500 µg/mL in data set [8] and 410 µg/mL in data set [3].

On to `C[C@]12C=CC(=O)C=C1CC[C@@H]1[C@@H]2CC[C@@]2(C)[C@H]1CC[C@]2(C)O` [dianabol, reference compound], for which, in data set [6], the IC50 result is “inactive”.

Consider `O=c1cc(-c2ccc(O)c(O)c2)oc2cc(O)cc(O)c12` [Compound 11, Luteolin], for which the “bacterial βGLU activity” value in data set [9] (0.1, 0.2 or 0.3 mg/kg body weight/day p.o., 30 weeks, vs DMH-controls) was “significantly reduced”. For the same compound, the “reduction in tumour incidence” value in data set [9] is on record as “up to 90%”. Moreover, the figures for the tumour size in data set [9] (initiation stage) and in data set [9] (post-initiation stage) were 0.25 cm and 0.50 cm, respectively.

For the compound `COc1ccc(C[C@@H]2CCC[C@@H]3[C@H](O)[C@@H](O)[C@H](CO)N23)cc1` [Compound 74], in data set [3] (1 mM), the inhibition is given as below 50%.

Turning to `C=CCc1ccc(O)c(OC)c1` [Compound 39, eugenol], in [6], the IC50 was 616.68 µg/mL.

For the compound `O=c1c(-c2ccc(O)cc2)coc2c([C@@H]3O[C@H](CO)[C@@H](O)[C@H](O)[C@H]3O)c(O)ccc12` [puerarin], the IC50 result in data set [8] and in [3] was “inactive” each time.

As to `O=C(Cn1c(-c2ccccn2)nc2ccccc21)c1ccccc1[N+](=O)[O-]` [Compound 112], the half-inhibitory concentration (IC50) in data set [6] is 4.06 µM.

Consider `O=c1c(O)c(-c2ccc(O)cc2)oc2cc(O)cc(O)c12` [Compound 19, Kaempferol], for which the IC50 in [10] was 36.5 µM.

Turning to `NC[C@@H]1OC(=O)N2[C@H]1[C@H](O)[C@@H](O)[C@H](O)[C@H]2C(=O)O` [Compound 73], the IC50 in [11] was 259 µM.

In the case of `O=C(O)c1ccccc1O` [salicylic acid, reference compound], the inhibition in data set [12] is 25%; in data set [6] (1 mM) it was 24.77%.

Turning to `O=C(O)[C@H]1NC[C@H](O)[C@@H](O)[C@@H]1O` [Compound 94], in data set [11], the “selectivity for bovine liver βGLU” value was 3 fold.

Take `O=C([O-])[C@H](O)[C@@H](O)[C@H](O)[C@H](O)CO.O=C([O-])[C@H](O)[C@@H](O)[C@H](O)[C@H](O)CO.[Zn+2]` [zinc gluconate]: in [3] (setting [20]), the “inhibition of E. coli βGLU” value was 97%.

With `O=c1c(-c2ccc(O)cc2)coc2cc(O[C@@H]3O[C@H](CO)[C@@H](O)[C@H](O)[C@H]3O)ccc12` [daidzin], the IC50 result in data set [8] and in data set [3] was “inactive” throughout.

In the case of `CCCC[C@H]1NC[C@@H](O)[C@@H](O)[C@H](O)[C@H]1O` [Compound 85], the IC50 in data set [3] was 261 µM.

Consider `O=C(Cn1c(-c2ccccn2)nc2ccccc21)c1ccc(F)cc1` [Compound 4-F], for which, in data set [6], the IC50 was 26.3 µM.

Turning to `CC(=O)O[C@@H]1C(=O)O[C@H]2[C@@H]1OC(=O)[C@@H]2OC(C)=O` [Compound 6, 2,5-di-O-acetyl-D-glucaro-1,4:6,3-dilactone], the “reduction of aberrant crypt foci formation” value in [13] (0.5% in diet) is listed as “over 48.6%”; in [13] (2% in diet), above 55.3%. For the same compound, the “inhibition of colon carcinogenesis” value in [13] (post-initiation phase, 32 weeks treatment (D-GL: 2%)) is recorded as “over 70%”.

`O=C(/C=C/c1ccc(O)cc1)O[C@@H]1O[C@H](Oc2cc(O)c3c(=O)cc(-c4ccc(O)cc4)oc3c2)[C@@H](O)[C@H](O)[C@H]1O` [Compound 148]: in data set [14], the “fold potency vs D-SAL” value is 10 fold. Further, the cytotoxicity result in data set [15] is recorded as “totally non-cytotoxic”.

Consider `CCOc1ccc(NC(=S)N(CCO)Cc2cc3cc(C)cc(C)c3[nH]c2=O)cc1` [Compound 151], for which the half-life in data set [16] was below 1 h. Moreover, in [17], the CPT-11 induced diarrhoea result was “alleviated Irinotecan (CPT-11) induced diarrhoea”.

As for `NCC(=O)[O-].NCC(=O)[O-].[Zn+2]` [zinc glycinate], in [3] (setting [20]), the “inhibition of E. coli βGLU” value is 99%.

For `Oc1ccccc1-c1nc2cc(Cl)cc(Cl)c2[nH]1` [Compound 111], in data set [5], the “fold potency vs D-SAL” value is 11 fold.

For the compound `NC[C@@H]1C[C@@H]2[C@H](O)[C@@H](O)[C@H](O)[C@@H](C(=O)O)N2C(=O)O1` [Compound 71], the IC50 in [11] was 218 µM.

Turning to `O=C(O)[C@@H]1[C@@H](O)[C@H](O)[C@@]2(O)CC[C@@H]1N2` [Compound 77, uronic-noeurostegine], the “selectivity for E. coli βGLU over bovine liver βGLU” value in [18] was determined as 38 fold. The Ki in [3] is 0.06 µM.

As for `COc1ccc(-c2nc(O)c3ccccc3n2)cc1OC` [Compound 160], in data set [18], the “fold potency vs D-SAL” value is listed as 76 fold.

Turning to `O=C(N/N=C/c1c(O)cc(O)cc1O)c1cc2cc(Cl)ccc2[nH]1` [Compound 128], the “fold stronger than corresponding oxadiazole variant of compound 115 library” value in data set [5] is on record as 3 fold.

As to `Oc1cccc(C(c2c[nH]c3cc(Br)ccc23)c2c[nH]c3ccc(Br)cc23)c1O` (centres unmarked) [Compound 133], the cytotoxicity result in [15] is listed as “moderate cytotoxicity”.

`CC(C)=CC[C@]12Oc3cc(O)c([C@H]4C=C(C)C[C@H](c5ccc(O)cc5O)[C@H]4C(=O)c4ccc(O)cc4O)c(O)c3C(=O)[C@@]1(O)Oc1cc(O)ccc12` [Compound 20, Sanggenon C]: in data set [1], the IC50 was 12.5 µM and the inhibition is above 70%.

As for `O=c1c2cc(O)c(O)cc2oc2cc(O)c([C@@H]3O[C@H](CO)[C@@H](O)[C@H](O)[C@H]3O)c(O)c12` [Compound 40, mangiferin], in data set [6], the IC50 was 38 µM.

As to tectorigenin [Compound 42], in data set [4] (50 mg/kg intraperitoneal pre-treatment), the “serum AST, ALT and LDH levels relative to CCl4-treated controls” value is listed as “significantly lowering”. For the same compound, the IC50 in data set [6] is 300 µg/mL.

`O=S(=O)(NCc1cccc(Cl)c1)c1cc(Cl)c(Oc2cccc(N3CCNCC3)c2)s1` [Compound 193]: the half-maximal inhibitory concentration (IC50) entry in data set [10] (US 9617.239 B2) was “equipotent”; in data set [10] (US 9617.239 B2, listed as C00012) it was 0.02 µM.

On to `N[C@@H](CC(=O)O)C(=O)O` [Compound 10, L-aspartic acid], for which the “inhibition of βGLU” value in data set [6] (100 μM) was around 86%. Also, the “transcutaneous bilirubin levels, lower than control” value in [19] (6 doses, 180 mg/5 ml of water/day, first week of life) is recorded as 25%. Also, in data set [19], the adverse effects entry is listed as “no adverse effects”. Further, the “fold more potent than D-isomer” value in [5] is 100 fold.

The term IC50 denotes the midpoint of a concentration-inhibition curve. As a reminder, the inhibition is the drop in the measured response relative to a control, in per cent. What is called half-life is how long it takes for the measured level to halve. A word on the Ki: it is a dissociation constant, usually derived from enzyme kinetics or from competition with a known ligand.
